Literature values as cited in paper PMC10352257, “In vivo effects of the alpha-synuclein misfolding inhibitor minzasolmin supports clinical development in Parkinson’s disease” (NPJ Parkinson's Disease, 2023).

Tested on: Line 61 transgenic mice
Set-up: method as in PMID 28585223
Conditions: cited from earlier work

CLR01
effect on gait deficits of Line 61 transgenic mice in round beam traversal test: improved
